# Values quoted from earlier work, collected in patent US20030031651A1, “Methods and reagents for cell transplantation” (priority 2001, published 2003).
# Tested on: BMSCs
# Settings: BMSCs exposed to 5-azacytidine
structure (smiles),measurement,value
Nc1ncn([C@@H]2O[C@H](CO)[C@@H](O)[C@H]2O)c(=O)n1 [5-azacytidine],c-abl and interleukin-6 transcripts,rapidly upregulate
same,expression of collagen I,downregulating
